Source: patent US6706663B2, “Herbicidal 3-heterocyclic substituted benzisothiazole and benzisoxazole compounds” (Wyeth, priority 2000, dated 2004)

Experiments:
[1] = test system: IPOHE (Ipomoea hederacea); assay: Postemergence herbicidal evaluation; assay type: in vivo, (L.) Jacq.
Procedure, shortened: (§1)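 Seedlings grown about two weeks in flats, sprayed, then kept under standard greenhouse care. Rated visually 4–5 weeks after treatment on a 0–9 scale (stand, vigour, malformation, size, chlorosis, overall appearance) relative to untreated control; repeat tests averaged.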

[2] = test system: ECHCG (Echinochloa crus-galli); assay: Postemergence herbicidal evaluation; assay type: in vivo, (L.) Beau
Procedure, shortened: as §1

[3] = test system: SETVI (Setaria viridis); assay: Postemergence herbicidal evaluation; assay type: in vivo, (L.) Beau
Procedure, shortened: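 Seedlings grown about two weeks were sprayed with compound in 50/50 acetone/water containing 0.5% TWEEN 20, at about 0.0040 to 1.000 kg/ha via nozzle at 40 psi. Plants were kept under greenhouse conditions and visually rated on a 0-9 scale versus control four to five weeks after treatment; replicate tests averaged.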

[4] = test system: GLXMAW (Soybean, Williams); assay: Postemergence herbicidal evaluation; assay type: in vivo, Glycine max, (L.) Merr. cv Williams
Procedure, shortened: as §1

[5] = test system: ORYSAT (Rice, Tebonnet); assay: Postemergence herbicidal evaluation; assay type: in vivo, Oryza sativa, (L.) Tebonnet
Procedure, shortened: as §1

[6] = test system: TRZAWR (Wheat, Winter, cv Riband); assay: Postemergence herbicidal evaluation; assay type: in vivo, Triticum aestivum
Procedure, shortened: as §1

[7] = test system: ZEAMX (Corn, Field); assay: Postemergence herbicidal evaluation; assay type: in vivo, Zea mays, L.
Procedure, shortened: as §1

[8] = test system: ABUTH (Abutilon theophrasti); assay: Preemergence herbicidal evaluation; assay type: in vivo, Medic.; settings: preemergence, rated 4-5 weeks after treatment
[9] = test system: AMBEL (Ambrosia artemisifolia); assay: Preemergence herbicidal evaluation; assay type: in vivo, L.; settings: preemergence, rated 4-5 weeks after treatment
Procedure, shortened: (§2)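 Applied before emergence as an aqueous acetone spray over seeded soil. Read-out: 0–9 visual rating covering plant stand, vigor, size, chlorosis, malformation and overall appearance compared with control, taken 4–5 weeks after spraying.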

[10] = test system: CASOB (Cassia obtusifolia); assay: Preemergence herbicidal evaluation; assay type: in vivo, L.; settings: preemergence, rated 4-5 weeks after treatment
Procedure, shortened: as §2

[11] = test system: CHEAL (Chenopodium album); assay: Preemergence herbicidal evaluation; assay type: in vivo, L.; settings: preemergence, rated 4-5 weeks after treatment
Procedure, shortened: as §2

[12] = test system: GALAP (Galium aparine); assay: Preemergence herbicidal evaluation; assay type: in vivo; settings: preemergence, rated 4-5 weeks after treatment
Procedure, shortened: as §2

[13] = test system: ECHCG (Echinochloa crus-galli); assay: Preemergence herbicidal evaluation; assay type: in vivo, (L.) Beau; settings: preemergence, rated 4-5 weeks after treatment
Procedure, shortened: as §2

[14] = test system: SETVI (Setaria viridis); assay: Preemergence herbicidal evaluation; assay type: in vivo, (L.) Beau; settings: preemergence, rated 4-5 weeks after treatment
Procedure, shortened: as §2

[15] = test system: ORYSAT (Rice, Tebonnet); assay: Preemergence herbicidal evaluation; assay type: in vivo, Oryza sativa, (L.) Tebonnet; settings: preemergence, rated 4-5 weeks after treatment
[16] = test system: TRZAWR (Wheat, Winter, cv Riband); assay: Preemergence herbicidal evaluation; assay type: in vivo, Triticum aestivum; settings: preemergence, rated 4-5 weeks after treatment
Procedure, shortened: as §2

[17] = test system: ECHORC (Echinochloa oryzoides); assay: Flooded paddy, preemergence weed control; assay type: in vivo, Echinochloa oryzoides (Ard.) Fritsch.; settings: rated 3-4 weeks after treatment, 0-9 rating scale
Procedure, shortened: (§3)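 Silt loam, sowing depth ≤0.5 cm; permanent flood 1.5–3 cm above soil; greenhouse culture after treatment. Readout: 0-9 visual scale (stand, vigor, malformation, size, chlorosis, appearance) vs control.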

[18] = test system: CYPSE (Cyperus serotinus); assay: Flooded paddy, preemergence weed control; assay type: in vivo, Rottb.; settings: rate 0.1250 kg/ha, rated 3-4 weeks after treatment, 0-9 rating scale
Procedure, shortened: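 Herbicidal effect was scored visually on a 0–9 scale against an untreated control 3–4 weeks after treatment. Compounds were applied preemergence as 50/50 v/v aqueous/acetone mixtures into flood water (1.5–3 cm deep over silt loam), at roughly 0.0080 to 0.1250 kg/ha active ingredient.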

[19] = test system: MOOVA (Monochoria vaginalis); assay: Flooded paddy, preemergence weed control; assay type: in vivo, Presl.; settings: rated 3-4 weeks after treatment, 0-9 rating scale
Procedure, shortened: as §3

CCc1cc(-c2nsc3ccc(-n4c(=O)cc(C(F)(F)F)n(C)c4=O)cc23)c(CC)s1 [Compound 8, 3-[3-(2,5-diethyl-3-thienyl)-1,2-benzisothiazol-5-yl]-1-methyl-6-(trifluoromethyl)uracil]
3.0: Postemergence herbicidal rating, SETVI ([3]; rate 0.0320 kg/ha) | Postemergence herbicidal rating, ORYSAT ([5]; rate 0.0320 kg/ha) | Postemergence herbicidal rating, ORYSAT ([5]; rate 0.0620 kg/ha)
9.0: Postemergence herbicidal rating, IPOHE ([1]; rate 0.0320 kg/ha) | ABUTH preemergence herbicidal rating ([8]; Rate 0.1250 kg/ha) | ABUTH preemergence herbicidal rating ([8]; Rate 0.2500 kg/ha) | AMBEL preemergence herbicidal rating ([9]; Rate 0.2500 kg/ha) | CHEAL preemergence herbicidal rating ([11]; Rate 0.0620 kg/ha) | CHEAL preemergence herbicidal rating ([11]; Rate 0.1250 kg/ha) | CHEAL preemergence herbicidal rating ([11]; Rate 0.2500 kg/ha) | GALAP preemergence herbicidal rating ([12]; Rate 0.2500 kg/ha) | ECHCG preemergence herbicidal rating ([13]; Rate 0.2500 kg/ha) | SETVI preemergence herbicidal rating ([14]; Rate 0.0620 kg/ha) | SETVI preemergence herbicidal rating ([14]; Rate 0.1250 kg/ha) | SETVI preemergence herbicidal rating ([14]; Rate 0.2500 kg/ha) | herbicidal rating, ECHORC ([17]; rate 0.0320 kg/ha) | herbicidal rating, ECHORC ([17]; rate 0.1250 kg/ha) | herbicidal rating, MOOVA ([19]; rate 0.0080 kg/ha) | herbicidal rating, MOOVA ([19]; rate 0.0320 kg/ha) | herbicidal rating, MOOVA ([19]; rate 0.1250 kg/ha)
0.0: ABUTH preemergence herbicidal rating ([8]; Rate 0.0620 kg/ha) | AMBEL preemergence herbicidal rating ([9]; Rate 0.0620 kg/ha) | CASOB preemergence herbicidal rating ([10]; Rate 0.0620 kg/ha) | CASOB preemergence herbicidal rating ([10]; Rate 0.1250 kg/ha) | CASOB preemergence herbicidal rating ([10]; Rate 0.2500 kg/ha) | GALAP preemergence herbicidal rating ([12]; Rate 0.0620 kg/ha) | GALAP preemergence herbicidal rating ([12]; Rate 0.1250 kg/ha) | ECHCG preemergence herbicidal rating ([13]; Rate 0.0620 kg/ha) | ECHCG preemergence herbicidal rating ([13]; Rate 0.1250 kg/ha) | ORYSAT preemergence herbicidal rating ([15]; Rate 0.0620 kg/ha) | ORYSAT preemergence herbicidal rating ([15]; Rate 0.1250 kg/ha) | ORYSAT preemergence herbicidal rating ([15]; Rate 0.2500 kg/ha) | TRZAWR preemergence herbicidal rating ([16]; Rate 0.0620 kg/ha) | TRZAWR preemergence herbicidal rating ([16]; Rate 0.1250 kg/ha) | TRZAWR preemergence herbicidal rating ([16]; Rate 0.2500 kg/ha)
5.5: Postemergence herbicidal rating, GLXMAW ([4]; rate 0.0620 kg/ha)
4.0: Postemergence herbicidal rating, SETVI ([3]; rate 0.0620 kg/ha) | Postemergence herbicidal rating, TRZAWR ([6]; rate 0.0320 kg/ha)
7.0: Postemergence herbicidal rating, IPOHE ([1]; rate 0.0620 kg/ha)
5.0: Postemergence herbicidal rating, GLXMAW ([4]; rate 0.0320 kg/ha) | Postemergence herbicidal rating, TRZAWR ([6]; rate 0.0620 kg/ha) | Postemergence herbicidal rating, ZEAMX ([7]; rate 0.0320 kg/ha) | Postemergence herbicidal rating, ZEAMX ([7]; rate 0.0620 kg/ha)
4.5: herbicidal rating, CYPSE [18]
2.0: Postemergence herbicidal rating, ECHCG ([2]; rate 0.0320 kg/ha) | Postemergence herbicidal rating, ECHCG ([2]; rate 0.0620 kg/ha) | AMBEL preemergence herbicidal rating ([9]; Rate 0.1250 kg/ha) | herbicidal rating, ECHORC ([17]; rate 0.0080 kg/ha)
